Experimental data reported in US8158628B2, “Sulfonylated 1,2,3,4-tetrahydropyrrolo[1,2-a]pyrazine compounds and their use as pharmaceuticals” (Gruenenthal GmbH, priority 2009, dated 2012).

Key:
[1] = molecular target: T1, B1R of the rat (Rattus norvegicus, UniProt P97583); assay: FLIPR Ca2+ functional assay, B1R antagonism, rat B1R in CHO K1 cells; assay type: cell-based; settings: test substance 10 μM; rB1R CHO K1 cells; agonist Des-Arg9 bradykinin at EC80; % of maximum achievable inhibition
T1 construct: expressed in transfected cells; host or cells: CHO K1 cells (Chinese hamster ovary), stably transfected
T1 sequence (P97583 1-337): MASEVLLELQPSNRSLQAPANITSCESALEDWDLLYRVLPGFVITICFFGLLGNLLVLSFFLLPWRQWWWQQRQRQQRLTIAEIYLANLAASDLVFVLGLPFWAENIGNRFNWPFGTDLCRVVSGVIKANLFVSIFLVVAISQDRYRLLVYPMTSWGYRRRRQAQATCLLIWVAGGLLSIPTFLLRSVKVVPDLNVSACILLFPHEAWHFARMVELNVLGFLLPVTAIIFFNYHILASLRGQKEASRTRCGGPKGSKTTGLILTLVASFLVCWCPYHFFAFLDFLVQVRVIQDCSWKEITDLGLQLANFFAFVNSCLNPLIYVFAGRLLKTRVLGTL
In short: (§1)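 IC50 values come from varied compound concentrations applied 10-20 min before an EC80 agonist challenge, with Des-Arg9 bradykinin for rat and Lys-Des-Arg9 bradykinin for human receptor. Ca2+ influx in Fluo-4-loaded CHO K1 transfectants was measured by FLIPR peak fluorescence. Data are % inhibition vs maximum, n=2-3, N>=2.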

[2] = molecular target: T2, human B1R (Homo sapiens, UniProt P46663); assay: FLIPR Ca2+ functional assay, B1R antagonism, human B1R in CHO K1 cells; assay type: cell-based; settings: test substance 10 μM; hB1R CHO K1 cells; agonist Lys-Des-Arg9 bradykinin at EC80; % of maximum achievable inhibition
T2 construct: expressed in transfected cells; host or cells: CHO K1 cells (Chinese hamster ovary), stably transfected
T2 sequence (P46663 1-353): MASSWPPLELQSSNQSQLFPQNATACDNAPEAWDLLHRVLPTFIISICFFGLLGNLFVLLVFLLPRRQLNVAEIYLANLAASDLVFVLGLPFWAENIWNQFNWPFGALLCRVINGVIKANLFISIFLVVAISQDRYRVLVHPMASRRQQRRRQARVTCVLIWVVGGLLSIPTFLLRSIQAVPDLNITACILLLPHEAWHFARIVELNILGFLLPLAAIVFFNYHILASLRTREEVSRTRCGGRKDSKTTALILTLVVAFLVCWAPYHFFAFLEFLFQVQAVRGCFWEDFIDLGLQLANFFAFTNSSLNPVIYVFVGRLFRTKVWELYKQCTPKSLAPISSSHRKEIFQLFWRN
In short: as §1

Row | SMILES | inhibition at 10 µM [1] [%] | inhibition at 10 µM [2] [%]
1 | COc1cc(C)c(S(=O)(=O)N2CCn3cccc3C2COCC(=O)N2CCC(OCCN3CCCC3)(c3cccnc3)CC2)c(C)c1 (stereo not drawn) [Example 24, 2-((2-(4-Methoxy-2,6-dimethylphenylsulfonyl)-1,2,3,4-tetrahydropyrrolo[1,2-a]pyrazin-1-yl)methoxy)-1-(4-(pyridin-3-yl)-4-(2-(pyrrolidin-1-yl)ethoxy)piperidin-1-yl)ethanone] | 114 | 99.9
2 | COc1ccc2cc(S(=O)(=O)N3CCn4cccc4C3CC(=O)NC3CCc4cc(CN(C)C)ccc4C3)ccc2c1 (stereo not drawn) [Example 96, N-[6-(Dimethylaminomethyl)-1,2,3,4-tetrahydro-naphthalen-2-yl]-2-[2-[(6-methoxy-naphthalen-2-yl)sulfonyl]-1,2,3,4-tetrahydro-pyrrolo[1,2-a]pyrazin-1-yl]-acetamide] | 102 | 99.9
3 | CN1CCN(Cc2ccc3c(c2)CCC(NC(=O)CC2c4cccn4CCN2S(=O)(=O)c2cccc(C(F)(F)F)c2)C3)CC1 (stereo not drawn) [Example 68, N-[6-[(4-Methyl-piperazin-1-yl)-methyl]-1,2,3,4-tetrahydro-naphthalen-2-yl]-2-[2-[[3-(trifluoromethyl)phenyl]sulfonyl]-1,2,3,4-tetrahydro-pyrrolo[1,2-a]pyrazin-1-yl]-acetamide] | 98.9 | 99.7
4 | COc1cc(C)c(S(=O)(=O)N2CCn3cccc3C2COCC(=O)N2CCC3(CC2)CCN(c2ccncc2)C3)c(C)c1 (stereo not drawn) [Example 4, 2-((2-(4-Methoxy-2,6-dimethylphenylsulfonyl)-1,2,3,4-tetrahydropyrrolo[1,2-a]pyrazin-1-yl)methoxy)-1-(2-(pyridin-4-yl)-2,8-diazaspiro[4.5]decan-8-yl)ethanone] | 104 | 99.8
5 | COc1ccc2cc(S(=O)(=O)N3CCn4cccc4C3CC(=O)NC3CCCc4cc(CN5C6CCCC5CC6)ccc43)ccc2c1 (stereo not drawn) [Example 95, N-[6-(8-Azabicyclo[3.2.1]octan-8-yl-methyl)-1,2,3,4-tetrahydro-naphthalen-1-yl]-2-[2-[(6-methoxy-naphthalen-2-yl)sulfonyl]-1,2,3,4-tetrahydro-pyrrolo[1,2-a]pyrazin-1-yl]-acetamide] | 99.8 | 99.7
6 | CCC(C)NCc1ccc2c(c1)CCC(NC(=O)CC1c3cccn3CCN1S(=O)(=O)c1cccc(C(F)(F)F)c1)C2 (stereo not drawn) [Example 65, N-[6-[(1-Methyl-propylamino)-methyl]-1,2,3,4-tetrahydro-naphthalen-2-yl]-2-[2-[[3-(trifluoromethyl)phenyl]sulfonyl]-1,2,3,4-tetrahydro-pyrrolo[1,2-a]pyrazin-1-yl]-acetamide] | 98.7 | 99.1
7 | Cc1ccc(S(=O)(=O)N2CCn3cccc3C2CC(=O)NC2CCCc3cc(CN4C5CCCC4CC5)ccc32)cc1Cl (stereo not drawn) [Example 110, N-[6-(8-Azabicyclo[3.2.1]octan-8-yl-methyl)-1,2,3,4-tetrahydro-naphthalen-1-yl]-2-[2-[(3-chloro-4-methyl-phenyl)sulfonyl]-1,2,3,4-tetrahydro-pyrrolo[1,2-a]pyrazin-1-yl]-acetamide] | 98.8 | 99.9
8 | COc1ccc2cc(S(=O)(=O)N3CCn4cccc4C3CC(=O)N[C@@H]3CCCc4cc(CN5CCCCC5)ccc43)ccc2c1 (stereo partly drawn) [Example 9, 2-(2-(6-Methoxynaphthalen-2-ylsulfonyl)-1,2,3,4-tetrahydropyrrolo[1,2-a]pyrazin-1-yl)-N—((R)-6-(piperidin-1-ylmethyl)-1,2,3,4-tetrahydronaphthalen-1-yl)acetamide] | 103 | 99.5
9 | COc1ccc2cc(S(=O)(=O)N3CCn4cccc4C3CC(=O)NC3CCCc4cc(CN5CCOCC5)ccc43)ccc2c1 (stereo not drawn) [Example 120, 2-[2-[(6-Methoxy-naphthalen-2-yl)sulfonyl]-1,2,3,4-tetrahydro-pyrrolo[1,2-a]pyrazin-1-yl]-N-[6-(morpholin-4-yl-methyl)-1,2,3,4-tetrahydro-naphthalen-1-yl]-acetamide] | 102 | 97.8
